# Columns and labels:
# Test in all cases: CETSA-MS, MDA-MB-231 cell lysates
# Assay type in all cases: binding
# Settings in all cases: 2 μM and 20 μM
# AAK1 = target: T1, AAK1 (Homo sapiens, UniProt Q2M2I8)
# T1 construct: endogenous in cells; host or cells: MDA-MB-231
# Protocol: (§1) Following treatment, cell lysates were thermally treated in a thermal gradient profile across a temperature range. Following the thermal shift, cell lysates were spun by centrifuge to pellet aggregate protein and the supernatant withdrawn. The supernatant was then denatured in buffer and heated to denature, reduce, and alkylate the supernatant proteins. Following heating and cooling to room temperature, cold acetone was added to the supernatant samples and proteins precipitated.
# (§2) The intact cell protein samples and lysate protein samples were then digested and labeled for mass spectrometry analysis according to the manufacturer's recommended protocols. Digested and labeled protein samples were analyzed by mass spectrometry proteomic analysis and the resulting protein targets were analyzed and plotted.
# ATAT1 = target: T2, ATAT1 (Homo sapiens, UniProt Q5SQI0)
# T2 construct: endogenous in cells; host or cells: MDA-MB-231
# Protocol: as §1, §2
# AURKA = target: T3, AURKA (Homo sapiens, UniProt O14965)
# T3 construct: endogenous in cells; host or cells: MDA-MB-231
# Protocol: as §1, §2
# BMP2K = target: T4, BMP2K (Homo sapiens, UniProt Q9NSY1)
# T4 construct: endogenous in cells; host or cells: MDA-MB-231
# Protocol: as §1, §2
# BUB1 = BUB1 (Homo sapiens, UniProt O43683)
# Protocol: as §1, §2
# CDK2 = target: T5, CDK2 (Homo sapiens, UniProt P24941)
# T5 construct: endogenous in cells; host or cells: MDA-MB-231
# Protocol: as §1, §2
# CDK5 = target: T6, CDK5 (Homo sapiens, UniProt Q00535)
# T6 construct: endogenous in cells; host or cells: MDA-MB-231
# Protocol: as §1, §2
# CHEK1 = target: T7, CHEK1 (Homo sapiens, UniProt O14757)
# T7 construct: endogenous in cells; host or cells: MDA-MB-231
# T7 sequence (O14757 1-476): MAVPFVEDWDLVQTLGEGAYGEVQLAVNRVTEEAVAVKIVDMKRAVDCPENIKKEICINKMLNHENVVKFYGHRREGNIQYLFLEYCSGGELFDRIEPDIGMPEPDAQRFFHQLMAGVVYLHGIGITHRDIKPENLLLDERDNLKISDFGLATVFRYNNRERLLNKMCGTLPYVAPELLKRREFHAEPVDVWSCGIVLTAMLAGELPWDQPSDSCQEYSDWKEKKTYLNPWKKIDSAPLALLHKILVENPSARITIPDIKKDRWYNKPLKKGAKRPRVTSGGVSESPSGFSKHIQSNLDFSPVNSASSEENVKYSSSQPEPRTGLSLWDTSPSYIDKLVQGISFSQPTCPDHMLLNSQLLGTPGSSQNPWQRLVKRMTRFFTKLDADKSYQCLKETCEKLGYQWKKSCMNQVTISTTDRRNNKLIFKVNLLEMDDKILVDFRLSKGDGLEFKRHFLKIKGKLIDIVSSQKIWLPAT
# Protocol: as §1, §2
# DGCR6 = target: T8, DGCR6 (Homo sapiens, UniProt Q14129)
# T8 construct: endogenous in cells; host or cells: MDA-MB-231
# Protocol: as §1, §2
# EPHA2 = target: T9, EPHA2 (Homo sapiens, UniProt P29317)
# T9 construct: endogenous in cells; host or cells: MDA-MB-231
# T9 sequence (P29317 24-976): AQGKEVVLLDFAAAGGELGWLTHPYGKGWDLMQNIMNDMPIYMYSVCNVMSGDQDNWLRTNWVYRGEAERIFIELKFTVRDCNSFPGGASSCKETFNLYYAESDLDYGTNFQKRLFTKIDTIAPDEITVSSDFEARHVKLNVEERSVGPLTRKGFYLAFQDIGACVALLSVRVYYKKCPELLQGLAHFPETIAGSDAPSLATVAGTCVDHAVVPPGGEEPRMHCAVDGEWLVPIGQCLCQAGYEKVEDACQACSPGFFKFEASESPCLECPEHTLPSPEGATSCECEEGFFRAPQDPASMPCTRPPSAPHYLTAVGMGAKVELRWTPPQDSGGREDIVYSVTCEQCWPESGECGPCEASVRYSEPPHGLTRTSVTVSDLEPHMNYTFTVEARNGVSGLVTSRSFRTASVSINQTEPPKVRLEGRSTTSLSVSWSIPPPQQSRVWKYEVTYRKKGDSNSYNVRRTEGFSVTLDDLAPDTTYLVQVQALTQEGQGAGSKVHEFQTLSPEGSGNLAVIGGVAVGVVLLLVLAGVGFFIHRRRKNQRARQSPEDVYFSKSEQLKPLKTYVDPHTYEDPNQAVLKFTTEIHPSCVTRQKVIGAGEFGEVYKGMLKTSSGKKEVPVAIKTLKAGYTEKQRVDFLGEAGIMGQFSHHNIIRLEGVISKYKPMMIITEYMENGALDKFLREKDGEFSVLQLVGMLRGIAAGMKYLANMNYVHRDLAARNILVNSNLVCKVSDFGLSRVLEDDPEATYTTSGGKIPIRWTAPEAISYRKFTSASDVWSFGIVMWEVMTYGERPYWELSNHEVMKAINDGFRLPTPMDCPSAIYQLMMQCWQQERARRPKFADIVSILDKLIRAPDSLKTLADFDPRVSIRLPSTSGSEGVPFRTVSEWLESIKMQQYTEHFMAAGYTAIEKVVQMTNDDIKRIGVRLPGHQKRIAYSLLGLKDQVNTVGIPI
# Protocol: as §1, §2
# FKBP8 = target: T10, FKBP8 (Homo sapiens, UniProt Q14318)
# T10 construct: endogenous in cells; host or cells: MDA-MB-231
# T10 sequence (Q14318 whole entry): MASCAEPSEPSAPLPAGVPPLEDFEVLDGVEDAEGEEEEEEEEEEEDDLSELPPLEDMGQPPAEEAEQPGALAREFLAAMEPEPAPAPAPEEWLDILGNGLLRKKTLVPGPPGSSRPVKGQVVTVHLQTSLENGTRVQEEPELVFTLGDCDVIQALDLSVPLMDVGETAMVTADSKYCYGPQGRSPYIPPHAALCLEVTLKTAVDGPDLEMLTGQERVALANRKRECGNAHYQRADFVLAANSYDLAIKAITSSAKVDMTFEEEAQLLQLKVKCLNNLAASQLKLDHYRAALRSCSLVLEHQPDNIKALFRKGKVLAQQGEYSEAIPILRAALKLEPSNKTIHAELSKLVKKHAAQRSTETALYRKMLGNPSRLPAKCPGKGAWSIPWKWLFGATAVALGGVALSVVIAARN
# Protocol: as §1, §2
# GSK3A = target: T11, GSK3A (Homo sapiens, UniProt P49840)
# T11 construct: endogenous in cells; host or cells: MDA-MB-231
# T11 sequence (P49840 whole entry): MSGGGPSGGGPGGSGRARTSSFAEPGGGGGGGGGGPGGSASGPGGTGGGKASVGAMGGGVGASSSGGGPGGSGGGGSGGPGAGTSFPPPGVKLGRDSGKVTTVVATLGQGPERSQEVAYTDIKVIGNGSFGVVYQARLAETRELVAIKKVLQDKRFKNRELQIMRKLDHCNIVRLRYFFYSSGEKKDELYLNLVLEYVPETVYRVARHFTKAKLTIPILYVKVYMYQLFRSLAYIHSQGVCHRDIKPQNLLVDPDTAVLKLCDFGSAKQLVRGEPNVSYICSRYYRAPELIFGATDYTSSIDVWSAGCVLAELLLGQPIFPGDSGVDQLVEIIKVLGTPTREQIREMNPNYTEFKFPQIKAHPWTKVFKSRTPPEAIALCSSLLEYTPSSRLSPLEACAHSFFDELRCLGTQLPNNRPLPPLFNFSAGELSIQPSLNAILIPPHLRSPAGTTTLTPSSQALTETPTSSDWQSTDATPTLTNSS
# Protocol: as §1, §2
# GSK3B = target: T12, GSK3B (Homo sapiens, UniProt P49841)
# T12 construct: endogenous in cells; host or cells: MDA-MB-231
# T12 sequence (P49841 whole entry): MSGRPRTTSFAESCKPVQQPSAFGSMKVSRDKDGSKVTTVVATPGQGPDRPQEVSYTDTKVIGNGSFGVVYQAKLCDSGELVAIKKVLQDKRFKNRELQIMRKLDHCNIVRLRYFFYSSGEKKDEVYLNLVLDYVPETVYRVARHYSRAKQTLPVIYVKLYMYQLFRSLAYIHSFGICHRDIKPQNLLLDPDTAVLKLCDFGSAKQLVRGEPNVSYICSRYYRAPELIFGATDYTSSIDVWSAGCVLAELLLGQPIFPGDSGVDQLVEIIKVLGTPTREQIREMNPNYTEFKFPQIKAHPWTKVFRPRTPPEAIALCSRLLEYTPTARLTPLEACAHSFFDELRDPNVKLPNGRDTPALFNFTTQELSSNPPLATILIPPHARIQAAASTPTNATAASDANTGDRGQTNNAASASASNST
# Protocol: as §1, §2
# LIMK1 = target: T13, LIMK1 (Homo sapiens, UniProt P53667)
# T13 construct: endogenous in cells; host or cells: MDA-MB-231
# T13 sequence (P53667 whole entry): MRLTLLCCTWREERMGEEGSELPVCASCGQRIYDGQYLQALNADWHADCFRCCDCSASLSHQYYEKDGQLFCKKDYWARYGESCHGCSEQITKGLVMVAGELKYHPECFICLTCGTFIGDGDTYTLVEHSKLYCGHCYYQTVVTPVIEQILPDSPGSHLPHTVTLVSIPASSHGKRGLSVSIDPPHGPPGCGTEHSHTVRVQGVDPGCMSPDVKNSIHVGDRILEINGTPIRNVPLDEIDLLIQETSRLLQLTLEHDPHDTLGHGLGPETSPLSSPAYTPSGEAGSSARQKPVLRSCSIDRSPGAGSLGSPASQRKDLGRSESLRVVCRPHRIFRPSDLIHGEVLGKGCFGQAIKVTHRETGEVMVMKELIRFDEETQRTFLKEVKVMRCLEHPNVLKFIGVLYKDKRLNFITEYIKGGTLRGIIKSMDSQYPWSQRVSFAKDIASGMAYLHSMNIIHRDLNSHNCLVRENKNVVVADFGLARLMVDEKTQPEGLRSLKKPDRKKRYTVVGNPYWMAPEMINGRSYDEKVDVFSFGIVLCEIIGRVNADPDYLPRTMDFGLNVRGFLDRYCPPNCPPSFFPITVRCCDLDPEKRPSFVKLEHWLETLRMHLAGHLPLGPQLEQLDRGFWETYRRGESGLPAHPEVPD
# Protocol: as §1, §2
# MAP11 = target: T14, MAP11 (Homo sapiens, UniProt Q8WVR3)
# T14 construct: endogenous in cells; host or cells: MDA-MB-231
# T14 sequence (Q8WVR3 whole entry): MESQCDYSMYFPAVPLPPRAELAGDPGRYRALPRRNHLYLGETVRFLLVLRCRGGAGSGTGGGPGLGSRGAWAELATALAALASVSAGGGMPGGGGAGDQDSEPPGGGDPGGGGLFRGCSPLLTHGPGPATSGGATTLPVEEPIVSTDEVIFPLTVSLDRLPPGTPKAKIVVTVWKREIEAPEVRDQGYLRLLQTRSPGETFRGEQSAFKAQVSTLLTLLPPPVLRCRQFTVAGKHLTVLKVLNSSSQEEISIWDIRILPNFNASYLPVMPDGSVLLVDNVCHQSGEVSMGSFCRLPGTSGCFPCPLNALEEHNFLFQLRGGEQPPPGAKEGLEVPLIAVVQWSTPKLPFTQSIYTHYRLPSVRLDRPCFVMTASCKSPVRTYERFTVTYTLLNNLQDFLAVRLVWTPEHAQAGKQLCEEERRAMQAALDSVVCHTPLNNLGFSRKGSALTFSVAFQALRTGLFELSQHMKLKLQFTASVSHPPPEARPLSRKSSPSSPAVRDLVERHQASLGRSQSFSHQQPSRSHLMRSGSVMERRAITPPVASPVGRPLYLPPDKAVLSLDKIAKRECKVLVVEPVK
# Protocol: as §1, §2
# MAPKAPK5 = target: T15, MAPKAPK5 (Homo sapiens, UniProt Q8IW41)
# T15 construct: endogenous in cells; host or cells: MDA-MB-231
# Protocol: as §1, §2
# PER3 = target: T16, PER3 (Homo sapiens, UniProt P56645)
# T16 construct: endogenous in cells; host or cells: MDA-MB-231
# Protocol: as §1, §2
# SLK = target: T17, SLK (Homo sapiens, UniProt Q9H2G2)
# T17 construct: endogenous in cells; host or cells: MDA-MB-231
# Protocol: as §1, §2
# STK17A = target: T18, STK17A (Homo sapiens, UniProt Q9UEE5)
# T18 construct: endogenous in cells; host or cells: MDA-MB-231
# Protocol: as §1, §2
# STK17B = target: T19, STK17B (Homo sapiens, UniProt O94768)
# T19 construct: endogenous in cells; host or cells: MDA-MB-231
# Protocol: as §1, §2
# TFEB = target: T20, TFEB (Homo sapiens, UniProt P19484)
# T20 construct: endogenous in cells; host or cells: MDA-MB-231
# Protocol: as §1, §2
# TGFBR2 = target: T21, TGFBR2 (Homo sapiens, UniProt P37173)
# T21 construct: endogenous in cells; host or cells: MDA-MB-231
# T21 sequence (P37173 23-567): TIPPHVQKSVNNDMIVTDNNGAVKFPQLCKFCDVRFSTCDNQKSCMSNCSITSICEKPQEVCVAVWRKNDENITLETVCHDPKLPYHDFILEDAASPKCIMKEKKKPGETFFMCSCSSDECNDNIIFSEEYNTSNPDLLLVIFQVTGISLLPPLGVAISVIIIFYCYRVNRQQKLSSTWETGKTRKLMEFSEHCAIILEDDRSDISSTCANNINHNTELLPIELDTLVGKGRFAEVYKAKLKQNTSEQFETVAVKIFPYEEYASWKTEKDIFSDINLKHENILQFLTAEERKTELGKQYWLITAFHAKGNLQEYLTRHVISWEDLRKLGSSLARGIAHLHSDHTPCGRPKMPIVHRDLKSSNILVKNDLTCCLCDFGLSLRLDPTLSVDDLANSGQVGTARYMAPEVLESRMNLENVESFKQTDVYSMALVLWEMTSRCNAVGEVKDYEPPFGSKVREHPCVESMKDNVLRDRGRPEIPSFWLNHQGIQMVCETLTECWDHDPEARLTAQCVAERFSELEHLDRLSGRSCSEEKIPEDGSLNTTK
# Protocol: as §1, §2
# USF2 = target: T22, USF2 (Homo sapiens, UniProt Q15853)
# T22 construct: endogenous in cells; host or cells: MDA-MB-231
# Protocol: as §1, §2
# UVSSA = target: T23, UVSSA (Homo sapiens, UniProt Q2YD98)
# T23 construct: endogenous in cells; host or cells: MDA-MB-231
# T23 sequence (Q2YD98 whole entry): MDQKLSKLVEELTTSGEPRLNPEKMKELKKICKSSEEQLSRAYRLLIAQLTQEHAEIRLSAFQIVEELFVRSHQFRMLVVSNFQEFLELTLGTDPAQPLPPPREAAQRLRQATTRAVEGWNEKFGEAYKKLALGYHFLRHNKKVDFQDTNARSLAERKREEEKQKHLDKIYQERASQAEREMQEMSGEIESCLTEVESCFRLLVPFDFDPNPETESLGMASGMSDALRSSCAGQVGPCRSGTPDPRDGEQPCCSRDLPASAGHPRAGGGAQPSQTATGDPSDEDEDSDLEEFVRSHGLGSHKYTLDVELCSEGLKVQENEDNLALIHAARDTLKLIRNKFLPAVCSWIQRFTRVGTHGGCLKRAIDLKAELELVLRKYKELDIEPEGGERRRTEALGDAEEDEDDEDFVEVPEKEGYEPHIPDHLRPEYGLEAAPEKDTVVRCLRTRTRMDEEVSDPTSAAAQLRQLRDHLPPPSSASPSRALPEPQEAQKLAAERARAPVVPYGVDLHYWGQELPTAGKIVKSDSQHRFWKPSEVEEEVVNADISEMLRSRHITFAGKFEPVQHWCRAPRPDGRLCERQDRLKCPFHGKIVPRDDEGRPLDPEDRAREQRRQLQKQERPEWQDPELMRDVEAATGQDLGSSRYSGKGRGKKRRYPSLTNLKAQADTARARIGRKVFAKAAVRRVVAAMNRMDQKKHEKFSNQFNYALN
# Protocol: as §1, §2
# ZCRB1 = target: T24, ZCRB1 (Homo sapiens, UniProt Q8TBF4)
# T24 construct: endogenous in cells; host or cells: MDA-MB-231
# T24 sequence (Q8TBF4 whole entry): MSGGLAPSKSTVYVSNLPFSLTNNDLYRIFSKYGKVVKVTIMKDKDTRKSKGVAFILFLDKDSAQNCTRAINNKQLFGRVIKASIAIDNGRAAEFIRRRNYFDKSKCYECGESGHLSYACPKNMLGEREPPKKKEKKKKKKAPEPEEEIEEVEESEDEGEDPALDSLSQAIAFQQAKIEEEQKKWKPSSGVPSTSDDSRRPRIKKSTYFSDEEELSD
# Protocol: as §1, §2
smiles,measurement,setting,value
"CN1CCN(c2ccc(Nc3ncc4cc(C#N)c(=O)n(C5CCCC5)c4n3)cc2)CC1 [Compound 1, 8-cyclopentyl-2-((4-(4-methylpiperazin-1-yl)phenyl)amino)-7-oxo-7,8-dihydropyrido[2,3-d]pyrimidine-6-carbonitrile]",Group (CETSA-MS thermal shift),AAK1,Stabilization
same,Group (CETSA-MS thermal shift),ATAT1,Stabilization
same,Group (CETSA-MS thermal shift),AURKA,Stabilization
same,Group (CETSA-MS thermal shift),BMP2K,Stabilization
same,Group (CETSA-MS thermal shift),BUB1,Stabilization
same,Group (CETSA-MS thermal shift),CDK2,Stabilization
same,Group (CETSA-MS thermal shift),CDK5,Stabilization
same,Group (CETSA-MS thermal shift),CHEK1,Destabilization
same,Group (CETSA-MS thermal shift),DGCR6,Destabilization
same,Group (CETSA-MS thermal shift),EPHA2,Stabilization
same,Group (CETSA-MS thermal shift),FKBP8,Stabilization
same,Group (CETSA-MS thermal shift),GSK3A,Stabilization
same,Group (CETSA-MS thermal shift),GSK3B,Stabilization
same,Group (CETSA-MS thermal shift),LIMK1,Stabilization
same,Group (CETSA-MS thermal shift),MAP11,Stabilization
same,Group (CETSA-MS thermal shift),MAPKAPK5,Destabilization
same,Group (CETSA-MS thermal shift),PER3,Stabilization
same,Group (CETSA-MS thermal shift),SLK,Stabilization
same,Group (CETSA-MS thermal shift),STK17A,Stabilization
same,Group (CETSA-MS thermal shift),STK17B,Stabilization
same,Group (CETSA-MS thermal shift),TFEB,Stabilization
same,Group (CETSA-MS thermal shift),TGFBR2,Stabilization
same,Group (CETSA-MS thermal shift),USF2,Stabilization
same,Group (CETSA-MS thermal shift),UVSSA,Destabilization
same,Group (CETSA-MS thermal shift),ZCRB1,Stabilization

# Reference: US20260183295A1, “METHODS AND COMPOSITIONS FOR TREATING CANCER” (Onconova Therapeutics, Inc., priority 2022, published 2026)
